Results from patent publication USRE32393E, “Composition for enhancing the administration of pharmacologically active agents” (KabiVitrum AB, priority 1967, dated 1987).
Counter-ions that a name gives are not always drawn.

Assays:
[1] = system: hind leg of cats anaesthetized with chloralose; settings: intraarterial, about 1-2 mg/kg
[2] = pH value of phenyramidol preparations; format: physicochemical; settings: aqueous solution
[3] = intravenous toxicity (LD50, survival time) of mecamylamine preparations in mice; format: in vivo, male albino mice of the NMRI strain; settings: mouse, in vivo, 1% preparations, fiducial limits at P = 0.05
Excerpt: (§1) Mecamylamine (3-methylaminoisocamphane hydrochloride) is a ganglion-blocking secondary amine, and as a base, it is an oily liquid which is soluble in lipids. Its toxicity (LD50) after intravenous administration has been estimated in male albino mice of the NMRI strain in accordance with the method of the Nordic Pharmacopoeia. The following preparations were used:
(§2) Mecamylamine hydrochloride, 1% dissolved in saline
(§3) Mecamylamine base, dissolved in soybean oil and emulsified in the conventional way. Final concentration 1%.
(§4) Mecamylamine base, directly emulsified in 5.5% glucose solution with the aid of Pluronic F-68 (a registered trade mark for a nonionic emulsifier consisting of a block polymer of ethylene oxide and propylene oxide, from Wyandotte Chemical Corporation, described on page 392 of the Extra Pharmacopoeia, Martindale, 26th Edition) and an ultrasonic apparatus (20.000 Hz). Final concentration 1%.
(§5) The injections were given in the dorsal tail vein at a speed of 0.1 ml per 5 seconds.

[4] = system: male albino mice of the NMRI strain; assay: as above; format: in vivo; settings: ± S.E.
Excerpt: as §1, §2, §3, §4, §5

[5] = system: chloralose-anaesthetized cat; assay: effect on blood pressure in chloralose-anaesthetized cat; format: in vivo; settings: intravenous
Description: The effects of the emulsion on the blood pressure when given intravenously in a dose of 5-10 mg/kg was registered on a chloralose-anaesthetized cat.

mouse = assay: sleeping time in mouse (loss of righting reflex); format: in vivo; settings: single dose
Excerpt: The sleeping time after a single dose injection of the emulsion was shorter than the sleeping time after injection of an aqueous solution of sodium hexobarbital:
In accordance with common practice, the sleeping time has been set as the duration of the loss of the righting reflex.

CC1CC(OC(=O)C(O)c2ccccc2)CC(C)(C)C1 (stereo not drawn) [Cyclandelate, 3,5,5-trimethylcyclohexyl mandelate]
onset of vasodilatation [1]: within a few seconds | vasodilatation ([1]; especially in noradrenaline induced vasoconstriction): marked vasodilatation

OC(CNc1ccccn1)c1ccccc1 (stereo not drawn) [phenyramidol hydrochloride]
pH value compared with the emulsion [2]: lower pH value

CNC1(C)C2CCC(C2)C1(C)C (stereo not drawn) [Mecamylamine HCl, 3-methylaminoisocamphane hydrochloride]
LD50 [3]: 16.3 mg/kg | Survival time (time from the injections to death) [4]: 55 ± 5.1 s

CN1C(=O)NC(=O)C(C)(C2=CCCCC2)C1=O (stereo not drawn) [sodium hexobarbital]
duration of blood pressure depression, emulsion and sodium hexobarbital solution [5]: about the same duration | depression of blood pressure ([5]; 5-10 mg/kg): about 6 mm Hg | Sleeping time (mouse; 72 mg/kg): 172 s | Sleeping time (mouse; 86 mg/kg): 905 s
